Assay results from patent publication US20090247641A1, “HYDRAZONE AGENTS TO TREAT CUTANEOUS LESIONS” (priority 2005, published 2009).

Key:
Type in all cases: in vivo, human
[1] = tested on: condyloma on cervix, low risk HPV in the 6/11 category; test: Treatment of condyloma and HPV infection with 0.25% A-007 gel (case report)
Protocol: They also had atypical squamous epithelium and CIN with warts. The cervix was inflamed with squamous exo-cervical dysplasia and a warty labial growth. They were treated with 2 grams per day of 0.25% A-007 gel applied to the vagina for five days, for a total topical dose of 10 grams. […] The HPV infection was also eliminated, and was absent after 24 months of observation.

[2] = tested on: cervical warts, CIN II, high risk HPV infection; test: Treatment of cervical warts, CIN II and high risk HPV infection with 0.25% gel (case report)
Protocol: A person had multiple abnormal pap smears with hair loss and skin changes secondary to hormonal imbalance. […] They were treated with 2 grams per day of 0.25% gel applied to the vagina for five days, for a total topical dose of 10 grams.

[3] = tested on: plantar warts; test: Treatment of plantar warts with A-007 0.25% gel (case report)
Excerpt: Prior attempts at local surgical removal of the warts had failed. […] A-007 was applied in a 0.25% gel (2 g) nightly for three nights and covered with an absorbent pad to allow maximum penetration.

## O=[N+]([O-])c1ccc(NN=C(c2ccc(O)cc2)c2ccc(O)cc2)c([N+](=O)[O-])c1 [A-007, 4,4′-dihydroxybenzophenone-2,4-dinitrophenylhydrazone]
[1]; 2 grams per day of 0.25% A-007 gel, vagina, five days
  external warty mass (labial growth): fell off the labia
[1]; after 24 months of observation
  HPV infection at follow-up: absent
[1]; low risk HPV 6/11 at baseline, 2 grams per day of 0.25% A-007 gel, vagina, five days
  HPV infection status: eliminated
[1]; person, 2 grams per day of 0.25% A-007 gel applied to the vagina for five days, total 10 grams
  cervical condyloma: disappeared
[2]; 2 grams per day of 0.25% gel, vagina, five days
  warty lesions on cervix: disappeared
[2]; CIN II, 2 grams per day of 0.25% gel, vagina, five days
  CIN outcome: resolved
[2]; after 18 months of observation
  status at follow-up: stable
[2]; high risk HPV at baseline, 2 grams per day of 0.25% gel, vagina, five days
  HPV infection status: converted to low grade
[2]; person, 2 grams per day of 0.25% gel applied to the vagina for five days, total 10 grams
  toxicities: No toxicities were observed
[3]; 0.25% gel (2 g) nightly for three nights, after 7 days
  appearance of treated area: new skin appeared which was soft with no area of induration
[3]; after two months of follow-up observation
  recurrence of warts and induration: Neither the warts nor induration returned
[3]; person, left foot, 0.25% gel (2 g) nightly for three nights under absorbent pad
  time until treated area began peeling and new skin appeared: 7 days
